For four compounds, Activity and IC50 results are on record in ChEMBL document CHEMBL1146244, “Stictic acid derivatives from the lichen Usnea articulata and their antioxidant activities” (J Nat Prod, 2007).

Usually IC50 stands for the concentration that inhibits the measured activity by half. Lower therefore signals higher potency.

A short description of experiment [1]: DPPH radical scavenging activity at 3000 uM. It is filed as functional. A general note: The DPPH test is a chemical assay of radical scavenging.
A short description of experiment [2]: Superoxide radical scavenging activity. The experiment is classed as functional.

As for `COc1cc(C)c2c(c1C=O)Oc1c(C=O)c(C(=O)O)c(O)c(C)c1OC2=O`, the Activity in experiment [1] was determined as 30%.

In experiment [1], `COc1cc(C)c2c(c1CO)Oc1c3c(c(O)c(C)c1OC2=O)C(=O)OC3` displayed an Activity of 18%.

In the case of `Cc1cc(O)c(C=O)c2c1C(=O)Oc1c(COC(=O)/C=C/C(=O)O)c(O)c(C(=O)O)c(C)c1O2` [FUMARPROTOCETRARIC ACID], in experiment [2], the IC50 is 580 µM. The same compound showed an Activity in experiment [1] of 20%. Turning to `Cc1cc(O)c(C=O)c2c1C(=O)Oc1c(C)c(O)c3c(c1O2)C(O)OC3=O` (stereo not given) [NORSTICTIC ACID], the IC50 in experiment [2] worked out at 566 µM.
